Here are results for 20 molecules from patent US8119805B2, “Substituted disulfonamide compounds” (Gruenenthal GmbH, priority 2008, dated 2012).

The target in assay [1] is T1, B1R receptor of the rat (rB1R) (Rattus norvegicus, UniProt P97583).
T1 construct: expressed in transfected cells; host or cells: CHO K1 cells
T1 sequence (P97583 1-337): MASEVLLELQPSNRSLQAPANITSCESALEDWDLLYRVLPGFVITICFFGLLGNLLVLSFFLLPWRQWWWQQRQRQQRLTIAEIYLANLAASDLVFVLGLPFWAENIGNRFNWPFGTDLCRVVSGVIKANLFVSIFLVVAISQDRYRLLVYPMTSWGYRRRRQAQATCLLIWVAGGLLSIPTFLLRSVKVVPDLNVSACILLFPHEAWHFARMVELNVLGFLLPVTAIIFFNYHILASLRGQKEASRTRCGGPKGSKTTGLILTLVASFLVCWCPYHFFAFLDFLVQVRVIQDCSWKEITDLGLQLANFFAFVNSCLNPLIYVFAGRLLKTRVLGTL
As to the kind of experiment: Functional investigation on the bradykinin 1 receptor (B1R), FLIPR Ca2+ assay, rB1R cells. The format is cell-based. The conditions noted are these: test substance 10 μM; CHO K1 cells transfected with rat B1R gene; Fluo-4 Ca2+ signal; agonist Des-Arg9-bradykinin at EC80; % of maximum achievable inhibition; read-out: B1R antagonism, rat [10 μM] % inhibition. Put shortly:
(§1)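 CHO K1 cells stably expressing human or rat B1R, Fluo-4 loaded, read by FLIPR (λex 488, λem 540 nm). Test compound (10 μM) first gave % activation against Lys-Des-[MUT]-bradykinin ≥50 nM (hB1R) or Des-[MUT]-bradykinin 10 μM (rB1R). After 10–20 min, agonist at EC80 was added; % inhibition or IC50 from concentration series, n=2–3, N≥2.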

Assay [2] deals with T2, human B1R receptor (hB1R) (Homo sapiens, UniProt P46663).
T2 construct: expressed in transfected cells; host or cells: CHO K1 cells
T2 sequence (P46663 1-353): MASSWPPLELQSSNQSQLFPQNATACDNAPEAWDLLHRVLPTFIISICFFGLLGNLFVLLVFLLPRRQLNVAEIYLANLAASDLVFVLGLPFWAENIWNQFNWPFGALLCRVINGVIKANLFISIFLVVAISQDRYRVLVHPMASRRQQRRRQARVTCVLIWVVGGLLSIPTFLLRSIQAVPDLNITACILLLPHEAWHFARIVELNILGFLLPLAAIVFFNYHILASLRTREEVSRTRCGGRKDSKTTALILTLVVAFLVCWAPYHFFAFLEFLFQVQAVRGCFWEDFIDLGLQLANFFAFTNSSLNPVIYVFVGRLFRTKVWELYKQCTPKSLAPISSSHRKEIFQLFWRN
As to the kind of experiment: Functional investigation on the bradykinin 1 receptor (B1R), FLIPR Ca2+ assay, hB1R cells. Format: cell-based. The following applies: test substance 10 μM; CHO K1 cells transfected with human B1R gene; Fluo-4 Ca2+ signal; agonist Lys-Des-Arg9-bradykinin at EC80; % of maximum achievable inhibition; read-out: B1R antagonism, human [10 μM] % inhibition. The method in brief:
as §1

The structures appear in SMILES notation. Counter-ions that a name gives are not always drawn.

Turning to `Cc1cc(S(=O)(=O)N2CCC[C@H]2CCCS(=O)(=O)N2[C@@H]3CC[C@H]2C[C@H](Oc2ccncc2)C3)c(C)cc1Cl` [Example 61, (1R,3R,5S)-8-(3-((S)-1-(4-Chloro-2,5-dimethylphenylsulfonyl)pyrrolidin-2-yl)propylsulfonyl)-3-(pyridin-4-yloxy)-8-azabicyclo[3.2.1]octane], the inhibition at 10 µM in assay [1] is 97%; in assay [2], 75%.

For the molecule `O=S(=O)(CCC[C@@H]1CCCN1S(=O)(=O)c1c(Cl)cc(C(F)(F)F)cc1Cl)N1CCC(Oc2ccncc2)CC1` [Example 72, (S)-4-(1-(3-(1-(2,6-Dichloro-4-(Trifluoromethyl)phenylsulfonyl)pyrrolidin-2-yl)propylsulfonyl)piperidin-4-yloxy)pyridine], the inhibition at 10 µM amounted to 45% in assay [1] and 38% in assay [2].

Turning to `COc1cc(C)c(S(=O)(=O)N2CCCC(CCS(=O)(=O)N3CCC(CCN4CCCC4)CC3)C2)c(C)c1C` (stereo not shown) [Example 39, 1-(4-Methoxy-2,3,6-trimethylphenylsulfonyl)-3-(2-(4-(2-(pyrrolidin-1-yl)ethyl)piperidin-1-ylsulfonyl)ethyl)piperidine hydrochloride], the inhibition at 10 µM in assay [1] worked out at 27%; in assay [2], 44%.

Take `O=S(=O)(CCC[C@@H]1CCCN1S(=O)(=O)c1ccccc1C(F)(F)F)N1[C@@H]2CC[C@H]1C[C@H](Oc1ccncc1)C2` [Example 56, (1R,3R,5S)-3-(Pyridin-4-yloxy)-8-(3-((S)-1-(2-(trifluoromethyl)phenylsulfonyl)pyrrolidin-2-yl)propylsulfonyl)-8-azabicyclo[3.2.1]octane]: the inhibition at 10 µM stood at 99% in assay [1] and 95% in assay [2].

As for `COc1cc(C)c(S(=O)(=O)N2C[C@@H](F)C[C@H]2CCCS(=O)(=O)N2CCC(Oc3ccncc3)CC2)c(C)c1` [Example 36, 4-(1-(3-((2R,4S)-4-Fluoro-1-(4-methoxy-2,6-dimethylphenylsulfonyl)pyrrolidin-2-yl)propylsulfonyl)piperidin-4-yloxy)pyridine], the inhibition at 10 µM in assay [1] was 89%; in assay [2], 95%.

With `COc1cc(C)c(S(=O)(=O)N2CCC[C@H]2CCCS(=O)(=O)N2CCN(C3CCN(C)CC3)CC2)c(C)c1` [Example 32, (S)-1-(3-(1-(4-Methoxy-2,6-dimethylphenylsulfonyl)pyrrolidin-2-yl)propylsulfonyl)-4-(1-methylpiperidin-4-yl)piperazine], the inhibition at 10 µM in assay [1] was determined as 99%; in assay [2], 105%.

Consider `Cc1cccc(Cl)c1S(=O)(=O)N1CCCCC1CCCS(=O)(=O)N1CCC2(CCN(c3ccncc3)CC2)CC1` (stereo not shown) [Example 86, 3-(3-(1-(2-Chloro-6-methylphenylsulfonyl)piperidin-2-yl)propylsulfonyl)-9-(pyridin-4-yl)-3,9-diazaspiro[5.5]undecane], for which the inhibition at 10 µM in assay [1] was found to be 101%; in assay [2] it was 99%.

With `COc1cc(C)c(S(=O)(=O)N2CCC[C@H]2CCCS(=O)(=O)N2CCC(Oc3ccncc3)CC2)c(C)c1` [Example 47, (S)-4-(1-(3-(1-(4-Methoxy-2,6-dimethylphenylsulfonyl)pyrrolidin-2-yl)propylsulfonyl)piperidin-4-yloxy)pyridine], the inhibition at 10 µM in assay [1] and in assay [2] was 95% in each case.

For `COc1cc(C)c(S(=O)(=O)N2CCC[C@H]2CCCS(=O)(=O)N2CCC3(CCC(N4CC(F)(F)C4)CC3)CC2)c(C)c1` [Example 63, 9-(3,3-Difluoroazetidin-1-yl)-3-(3-((S)-1-(4-methoxy-2,6-dimethylphenylsulfonyl)pyrrolidin-2-yl)propylsulfonyl)-3-azaspiro[5.5]undecane], the values for the inhibition at 10 µM in assay [1] and in assay [2] were 102% and 99%, respectively.

On to `Cc1cccc(Cl)c1S(=O)(=O)N1CCC[C@H]1CCCS(=O)(=O)N1CCN(C2CCN(C)CC2)CC1` [Example 27, (S)-1-(3-(1-(2-Chloro-6-methylphenylsulfonyl)pyrrolidin-2-yl)propylsulfonyl)-4-(1-methylpiperidin-4-yl)piperazine], for which the results for the inhibition at 10 µM in assay [1] and in assay [2] were 93% and 108%, respectively.

Take `COc1cc(C)c(S(=O)(=O)N2CCC[C@H]2CCCS(=O)(=O)N2CCC3(CCN(c4ccncc4)C3)C2)c(C)c1` (stereo partly drawn) [Example 82, 2-(3-((S)-1-(4-Methoxy-2,6-dimethylphenylsulfonyl)pyrrolidin-2-yl)propylsulfonyl)-7-(pyridin-4-yl)-2,7-diazaspiro[4.4]nonane]: the values for the inhibition at 10 µM in assay [1] and in assay [2] were 103% and 100%, respectively.

As for `COc1cc(C)c(S(=O)(=O)N2CCC(CCS(=O)(=O)N3CCC(CCN4CCCC4)CC3)C2)c(C)c1` (stereo not shown) [Example 25, 1-(2-(1-(4-Methoxy-2,6-dimethylphenylsulfonyl)pyrrolidin-3-yl)ethylsulfonyl)-4-(2-(pyrrolidin-1-yl)ethyl)piperidine hydrochloride], the values for the inhibition at 10 µM in assay [1] and in assay [2] were 90% and 103%, respectively.

Take `Cc1cc(C)c(S(=O)(=O)N2CC[C@@H]2CCCS(=O)(=O)N2CCC(CCN3CCCC3)CC2)c(C)c1` [Example 4, (S)-1-(3-(1-(Mesitylsulfonyl)azetidin-2-yl)propylsulfonyl)-4-(2-(pyrrolidin-1-yl)ethyl)piperidine hydrochloride]: the inhibition at 10 µM amounted to 13% in assay [1] and 76% in assay [2].

On to `COc1cc(C)c(S(=O)(=O)N2CCCCC2CCCS(=O)(=O)N2CCC3(CC2)CCC(OCCN2CCCC2)(c2cccnc2)CC3)c(C)c1` (stereo not shown) [Example 87, 3-(3-(1-(4-Methoxy-2,6-dimethylphenylsulfonyl)piperidin-2-yl)propylsulfonyl)-9-(pyridin-3-yl)-9-(2-(pyrrolidin-1-yl)ethoxy)-3-azaspiro[5.5]undecane], for which the inhibition at 10 µM was 102% in assay [1] and 100% in assay [2].

Turning to `Cc1cc(C)c(S(=O)(=O)N2CCCC(CCCS(=O)(=O)N3CCC(CCN4CCCC4)CC3)C2)c(C)c1` (stereo not shown) [Example 11, 1-(Mesitylsulfonyl)-3-(3-(4-(2-(pyrrolidin-1-yl)ethyl)piperidin-1-ylsulfonyl)propyl)piperidine hydrochloride], the figures for the inhibition at 10 µM in assay [1] and in assay [2] were 26% and 65%, respectively.

Regarding `COc1cc(C)c(S(=O)(=O)N2CCC[C@H]2CCCS(=O)(=O)N2CCC3(CCN(c4ccncc4)CC3)C2)c(C)c1` [Example 85, (S)-2-(3-(1-(4-Methoxy-2,6-dimethylphenylsulfonyl)pyrrolidin-2-yl)propylsulfonyl)-8-(pyridin-4-yl)-2,8-diazaspiro[4.5]decane], the inhibition at 10 µM in assay [1] is 101%; in assay [2] it was 99%.

With `COc1cc(C)c(S(=O)(=O)N2CCC(CCS(=O)(=O)N3CCC(CCN4CCCC4)CC3)C2)c(C)c1C` (stereo not shown) [Example 16, 1-(2-(1-(4-Methoxy-2,3,6-trimethylphenylsulfonyl)pyrrolidin-3-yl)ethylsulfonyl)-4-(2-(pyrrolidin-1-yl)ethyl)piperidine hydrochloride], the inhibition at 10 µM in assay [1] was 13%; in assay [2], 97%.

For the molecule `COc1cc(C)c(S(=O)(=O)N2CCC[C@H]2CCCS(=O)(=O)N2CCC3(CCN(c4ccncc4)C3)C2)cc1C` (stereo partly drawn) [Example 84, 2-(3-((S)-1-(4-Methoxy-2,5-dimethylphenylsulfonyl)pyrrolidin-2-yl)propylsulfonyl)-7-(pyridin-4-yl)-2,7-diazaspiro[4.4]nonane], the inhibition at 10 µM stood at 82% in assay [1] and 96% in assay [2].

Regarding `O=S(=O)(CCC1CCN(S(=O)(=O)c2cccc(Cl)c2Cl)C1)N1CCC(CCN2CCCC2)CC1` (stereo not shown) [Example 17, 1-(2-(1-(2,3-Dichlorophenylsulfonyl)pyrrolidin-3-yl)ethylsulfonyl)-4-(2-(pyrrolidin-1-yl)ethyl)piperidine hydrochloride], the inhibition at 10 µM in assay [1] was determined as 12%; in assay [2], 58%.

In the case of `Cc1cc(C)c(S(=O)(=O)N2CCC(CCS(=O)(=O)N3CCN(c4ccncc4)CC3)C2)c(C)c1` (stereo not shown) [Example 20, 1-(2-(1-(Mesitylsulfonyl)pyrrolidin-3-yl)ethylsulfonyl)-4-(pyridin-4-yl)piperazine hydrochloride], the inhibition at 10 µM was found to be 75% in assay [1] and 103% in assay [2].
